Measured values: US12421249B2, “Inhibitors of APOL1 and methods of using same” (Vertex Pharmaceuticals Incorporated, priority 2020, dated 2025)
Like-named read-outs stand apart in the source and are kept apart here.

How the values were obtained:
APOL1 G1 = target: T1, APOL1 G1 (Homo sapiens, UniProt O14791, I384M/S342G); assay: Trypanosoma brucei brucei Lysis Assay Using APOL1 Recombinant Protein (AlamarBlue viability readout); assay type: cell-based; conditions: for IC50: IP50 = IC50 for cell proliferation, read-out: Trypanosome Assay IP50; for Emax: read-out: Trypanosome Assay Max Activity (%)
T1 sequence (O14791 28-398 S342G/I384M): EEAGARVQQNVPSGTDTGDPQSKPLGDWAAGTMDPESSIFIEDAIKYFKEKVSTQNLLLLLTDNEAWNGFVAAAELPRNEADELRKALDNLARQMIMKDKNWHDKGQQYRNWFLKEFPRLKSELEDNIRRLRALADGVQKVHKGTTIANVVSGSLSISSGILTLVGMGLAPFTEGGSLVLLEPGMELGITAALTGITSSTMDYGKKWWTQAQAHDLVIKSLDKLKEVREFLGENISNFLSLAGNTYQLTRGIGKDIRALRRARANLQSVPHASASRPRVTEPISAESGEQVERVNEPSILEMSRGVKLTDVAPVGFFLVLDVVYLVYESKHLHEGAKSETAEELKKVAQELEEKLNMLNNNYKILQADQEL
In short: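 Percent viability comes from AlamarBlue (resazurin→resorufin) fluorescence interpolated on a standard curve of known parasite numbers, with no-APOL1 wells as 100%. Parasites (Lister 427 bloodstream form, 120,000/well, serum-free assay medium) meet 0.05 μg/mL APOL1 (~EC90). Compounds span a 10-point series, 0.1% DMSO final.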

APOL1 = target: T2, APOL1 (Homo sapiens, UniProt O14791); assay: Multi-Tox Assay (MultiTox-Fluor Multiplex Cytotoxicity Assay in tet-inducible APOL1 T-REx-HEK293 cells; Table 46 does not say which APOL1 variant G0/G1/G2); assay type: cell-based; conditions: APOL1 variant not given; for IC50: IP50 = IC50 for cell proliferation
T2 sequence (O14791 1-398 S342G/I384M): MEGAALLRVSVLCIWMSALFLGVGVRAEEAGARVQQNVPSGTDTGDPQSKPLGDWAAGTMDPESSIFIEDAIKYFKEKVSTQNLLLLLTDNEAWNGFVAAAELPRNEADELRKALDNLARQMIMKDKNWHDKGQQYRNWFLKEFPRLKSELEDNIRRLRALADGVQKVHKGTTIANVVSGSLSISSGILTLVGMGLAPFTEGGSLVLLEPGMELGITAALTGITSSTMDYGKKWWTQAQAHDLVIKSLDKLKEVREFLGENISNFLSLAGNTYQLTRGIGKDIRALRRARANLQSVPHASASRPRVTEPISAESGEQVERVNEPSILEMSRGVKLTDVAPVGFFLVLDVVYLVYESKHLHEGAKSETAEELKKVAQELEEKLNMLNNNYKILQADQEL

Structure (SMILES) | IC50 (APOL1 G1; Trypanosome Assay) [nM] | Emax (APOL1 G1; Trypanosome Assay) [%] | IC50 (APOL1) [nM] | Multi-Tox Assay Max Activity (%) (APOL1) | Emax (APOL1 G1) [%] | IC90 (APOL1) [nM]
C[C@H]1C[C@@]2(C[C@@H](c3cccc4[nH]c(=O)oc34)N1)OCCc1cc(Cl)sc12 (racemic) [Compound 141] | 50 to 500 | 90 | 50 to 500 | – | – | –
Cc1nn(C)cc1[C@@H]1C[C@]2(C[C@H](C)N1)OCCc1cc(Cl)sc12 (racemic) [Compound 142] | 50 to 500 | 83.7 | 50 to 500 | 99.0 | – | –
Cc1nc([C@@H]2C[C@]3(C[C@H](C)N2)OCCc2cc(Cl)sc23)oc1C (racemic) [Compound 144] | 50 to 500 | 102 | 50 to 500 | 98.0 | – | –
COc1ccnc([C@@H]2C[C@]3(C[C@H](C)N2)OCCc2cc(Cl)sc23)n1 (racemic) [Compound 145] | 50 to 500 | 88 | 50 to 500 | – | – | –
C[C@H]1C[C@@]2(C[C@@H](c3cccc(S(C)(=O)=O)c3)N1)OCCc1cc(Cl)sc12 (racemic) [Compound 146] | 50 to 500 | 88 | 50 to 500 | – | – | –
C[C@H]1C[C@@]2(C[C@@H](c3cccc(S(N)(=O)=O)c3)N1)OCCc1cc(Cl)sc12 (racemic) [Compound 147] | 50 to 500 | 93.5 | 50 to 500 | – | – | –
C[C@H]1C[C@@]2(C[C@@H](c3cccc(-c4cn[nH]c4)c3)N1)OCCc1cc(Cl)sc12 (racemic) [Compound 148] | 50 to 500 | 92.5 | 50 to 500 | 97.0 | – | –
C[C@H]1C[C@@]2(C[C@@H](c3cnc4n3CCOC4)N1)OCCc1cc(Cl)sc12 (racemic) [Compound 149] | > 500 | 95 | 50 to 500 | – | – | –
Cc1nc([C@@H]2C[C@]3(C[C@H](C)N2)OCCc2cc(Cl)sc23)[nH]c1C (racemic) [Compound 150] | > 500 | 87 | 50 to 500 | 96.3 | – | –
C[C@H]1C[C@@]2(C[C@@H](c3cccc(=O)[nH]3)N1)OCCc1cc(Cl)sc12 (racemic) [Compound 151] | > 500 | 85.7 | 50 to 500 | – | – | –
C[C@H]1C[C@@]2(C[C@@H](c3ccnn3C)N1)OCCc1cc(Cl)sc12 (racemic) [Compound 152] | > 500 | 92.7 | 50 to 500 | 98.0 | – | –
CCc1c[nH]c([C@@H]2C[C@]3(C[C@H](C)N2)OCCc2cc(Cl)sc23)n1 (racemic) [Compound 153] | > 500 | 89.5 | 50 to 500 | 96.0 | – | –
COc1nn(C)cc1[C@@H]1C[C@]2(C[C@H](C)N1)OCCc1cc(Cl)sc12 (racemic) [Compound 154] | > 500 | 96.5 | > 500 | – | – | –
Cc1coc([C@@H]2C[C@]3(C[C@H](C)N2)OCCc2cc(Cl)sc23)n1 (racemic) [Compound 155] | > 500 | 97 | 50 to 500 | – | – | –
Cc1nc([C@@H]2C[C@]3(C[C@H](C)N2)OCCc2cc(Cl)sc23)c[nH]1 (racemic) [Compound 156] | > 500 | 85 | > 500 | – | – | –
Cc1ncoc1[C@@H]1C[C@]2(C[C@H](C)N1)OCCc1cc(Cl)sc12 (racemic) [Compound 157] | > 500 | 95 | 50 to 500 | 96.3 | – | –
Cc1nn(CCO)cc1[C@@H]1C[C@]2(C[C@H](C)N1)OCCc1cc(Cl)sc12 (racemic) [Compound 158] | > 500 | 75.5 | > 500 | – | – | –

Structure (SMILES) | IC50 (APOL1 G1; Trypanosome Assay) [nM] | Emax (APOL1 G1; Trypanosome Assay) [%] | IC50 (APOL1) [nM] | Multi-Tox Assay Max Activity (%) (APOL1) | Emax (APOL1 G1) [%] | IC90 (APOL1) [nM]
Cc1nc([C@@H]2C[C@]3(C[C@H](C)N2)OCCc2cc(Cl)sc23)cn1C (racemic) [Compound 159] | > 500 | 63.5 | > 500 | – | – | –
C[C@H]1C[C@@]2(C[C@@H](c3cnccc3O)N1)OCCc1cc(Cl)sc12 (racemic) [Compound 160] | > 500 | 97.5 | > 500 | – | – | –
Cc1nc[nH]c1[C@@H]1C[C@]2(C[C@H](C)N1)OCCc1cc(Cl)sc12 (racemic) [Compound 161] | > 500 | 73 | > 500 | – | – | –
CC(C)c1c[nH]c([C@@H]2C[C@]3(C[C@H](C)N2)OCCc2cc(Cl)sc23)n1 (racemic) [Compound 162] | > 500 | 81 | > 500 | – | – | –
C[C@H]1C[C@@]2(C[C@@H](c3cnn4c3OCCC4)N1)OCCc1cc(Cl)sc12 (racemic) [Compound 163] | > 500 | 79.5 | > 500 | – | – | –
Cc1nccnc1[C@@H]1C[C@]2(C[C@H](C)N1)OCCc1cc(Cl)sc12 (racemic) [Compound 164] | > 500 | 85 | > 500 | – | – | –
C[C@H]1C[C@@]2(C[C@@H](c3ncc(C(F)(F)F)[nH]3)N1)OCCc1cc(Cl)sc12 (racemic) [Compound 165] | > 500 | 61 | > 500 | 92.0 | – | –
COc1cccc([C@@H]2C[C@]3(C[C@H](C)N2)OCCc2cc(Cl)sc23)c1O (racemic) [Compound 166] | > 500 | 57.5 | > 500 | – | – | –
Cc1cccnc1[C@@H]1C[C@]2(C[C@H](C)N1)OCCc1cc(Cl)sc12 (racemic) [Compound 167] | > 500 | 73 | > 500 | – | – | –
C[C@H]1C[C@@]2(C[C@@H](c3cccc4cn[nH]c34)N1)OCCc1cc(Cl)sc12 (racemic) [Compound 168] | > 500 | 54.5 | > 500 | – | – | –
C[C@H]1C[C@@]2(C[C@@H](c3n[nH]c4ccccc34)N1)OCCc1cc(Cl)sc12 (racemic) [Compound 169] | > 500 | 61 | > 500 | – | – | –
Cc1nc2c([C@@H]3C[C@]4(C[C@H](C)N3)OCCc3cc(Cl)sc34)cccc2o1 (racemic) [Compound 170] | > 500 | 71.5 | > 500 | 89.7 | – | –
C[C@H]1C[C@@]2(C[C@@H](c3ncnn3C)N1)OCCc1cc(Cl)sc12 (racemic) [Compound 171] | > 500 | 14 | > 500 | – | – | –
C[C@H]1C[C@@]2(C[C@@H](c3ncccc3O)N1)OCCc1cc(Cl)sc12 (racemic) [Compound 172] | > 500 | 64.5 | > 500 | – | – | –
C[C@@H]1C[C@]2(C[C@H](C)N1)OCC(O)c1cc(Cl)sc12 (mixture of isomers) [Compound 205, (2R,6S)-2-chloro-2′,6′-dimethyl-spiro[4,5-dihydrothieno[2,3-c]pyran-7,4′-piperidine]-4-ol] | 50 to 500 | – | < 50 | – | 106 | –
C[C@@H]1CC2(C[C@@H](c3cn(C)nn3)N1)OCCc1cc(Cl)sc12 (single isomer, unassigned) [Compound 7] | > 500 | 92 | 50 to 500 | – | – | 50 to 500
